Laboratory results from patent publication US8648211B2, “Surface-modifying silicone elastomers” (priority 2009, dated 2014).
Values belong to the substance of their own block, whether it stands above or below them.

Tests used:
Format in all cases: physicochemical
[1] = Stability of aqueous surfactant solutions (decomposition in water)
Excerpt: The durability and environmental stability of modified surfaces are factors to consider for their use in real applications. While silicones are normally very stable to degradation, provided that the conditions remain near neutrality, branched trisiloxanes are notoriously unstable to hydrolysis.^27 Superwetters are usually added to the agents to be dispersed and then used immediately in pH 7 buffers. […] However, it was possible that tethering the superwetter to a surface would change the hydrolytic susceptibility.

[2] = Wetting of polystyrene by aqueous surfactant solutions (drop shape analyzer); details: for surface area of drop versus buffer control on polystyrene: 0.1 wt % (0.2 wt %, 0.5 wt %) in phosphate buffer pH=7
Protocol: (§1) ^1H NMR and ^13C NMR spectra were obtained on Bruker AC-200 (200-MHz) spectrometer. The molecular weight and mass spectra were determined on a Micromass Global Q-TOF Ultima (MALDI/CapLC-ESI Quadrupole Time of Flight) Mass Spectrometer. ATR-FTIR spectra were obtained on Bio-Rad FTS-40 (Fourier transform IR) spectrometer with an ATR accessory, on which a 45° rectangle ZnSe crystal was used. Surface water contact angle and surface tension were recorded using a Krüss V1.50 drop shape analyzer.
(§2) The ability of solutions of APS and related compounds to wet substrates was established using a drop shape analyzer. The contact angles and total spreading were established immediately after placing an aqueous drop volume ˜0.02 ml onto the surface of polystyrene (a new Petri dish) or a cleaned glass slide.
(§3) The ability of APS to disperse an aqueous phosphate buffer solution (pH=7) was determined on both hydrophobic (polystyrene) and hydrophilic (glass) surfaces. […] By contrast, when 1.5 wt % APS was included in the buffer, the maximum wetting diameter area on polystyrene was close to 6.16 cm^2, close to 200 times the area of the original buffer solution. Thus, APS has characteristics of typical superwetters.

[3] = Shelf-life of APS-modified PDMS stored in air, tested monthly over 5 months
Excerpt: (§4) The ability of water to wet out a variety of surface modified silicones was also established using the drop shape analyzer. […] Prior to each test, the coupons were thoroughly washed by DI water (FIG. 8).
The shelf-life of the tethered APS was also established by testing spreading behavior monthly over a period of 5 months: samples of APS-modified surfaces were stored without any special protection on the laboratory bench. Subtle changes were observed over time. While the final contact angle (approaching zero) of water droplets was still achieved after 5 months, spreading rates changed appreciably. Rather than two distinct spreading rates, the droplet would spread to a specific radius, stop for several (typically up to 10) seconds and then spread to a new larger radius. This start-stop-start-stop process was repeated up to about 8 times at which point the approximately 0° contact angle was achieved.

[4] = Water wetting (contact angle, spreading) on surface-modified PDMS
Protocol: as §1, §4
The magnitude of spreading of APS in water was examined, and water on APS tethered to silicone, but not yet considered is the rate of spreading: rapid rates of spreading are also emblematic of superwetters. The water spreading rate on APS-modified PDMS was calculated according to a literature method^26 where: spreading rate=dD/dt (1) and, spreading area=dΔS/dt, (2) wherein D is the diameter of water droplet, S is the surface area covered by water and t is the spreading time. […] That is, replacing a terminal alcohol, acetate, etc., on the PEG block with an allyl group leads only to subtle changes in wetting properties. The situation is quite different when the superwetter is tethered.

[5] = Hydrolytic stability of APS-modified PDMS soaked in pH 4 and pH 10 solutions
Protocol: as §4
The hydrolytic stability of APS-modified PDMS elastomers was tested by soaking for extended periods of time in aqueous pH=4 and pH=10 solutions. […] However, while spreading is impeded after the surface is exposed to such conditions, the water contact angle can still decrease to 20° over 2-3 minutes. The tethered APS is thus more resistant to hydrolytic degradation than APS in solution. Further degradation while soaking the tethered APS in an aqueous solution occurred in the second week, after which no superspreading effect was observed: contact angles decreased only to about 60° over 1-2 minutes.

[6] = Wetting of glass by aqueous surfactant solutions (drop shape analyzer); details: 0.1 wt % (0.2 wt %, 0.5 wt %) in phosphate buffer pH=7
Protocol: as §1, §2, §3

[7] = 0.02 ml water on APS-modified silicone elastomer
[8] = PDMS 1 wt % DC1107 grafted with 14.7 wt % APS, 0.02 ml water

- area of one drop after spreading ([2]; 1 wt % aqueous solution, from 0.03 cm^2, in 5 seconds, surface not stated, data not shown): 4.91 cm^2
- maximum wetting diameter area on polystyrene ([2]; 1.5 wt % in aqueous phosphate buffer pH=7, 5 μl buffer control 0.031 cm^2): ~6.16 cm^2
- wetting area relative to the area of the original buffer solution ([2]; 1.5 wt % in phosphate buffer pH=7, polystyrene): ~200 times
- final water contact angle after 5 months ([3]; APS-modified surface stored on the laboratory bench): approximately 0 °
- time surface remained superhydrophilic ([3]; APS-modified surface, storage in air): at least 5 months
- spreading rate of water droplet, first 3 seconds ([4]; 0.02 ml water on APS-modified PDMS (1 wt % DC1107, 14.7 wt % APS)): ~1 mm s^−1
- final area covered by water relative to original droplet size [4, 7]: about 15 times
- water contact angle within about 1 minute [4, 7]: below 10 °
- contact angle at the edge of the spread droplet when the drop ceases to migrate ([4]; APS-modified PDMS): ~0 °
- increase of water spreading area during first 3 seconds [4, 8]: 8 times
- spreading rate of water droplet, subsequent 30 seconds [4, 8]: approximately 0.1 mm s^−1
- water contact angle on APS-grafted silicone surfaces within one minute ([4]; distilled water, in some cases, depends on surface coverage): nearly zero
- Contact Angle (°) ([4]; water droplets 0.02 ml on modified PDMS prepared with 1% DC1107): 0 °
- Wetting Diameter (mm) ([4]; water droplets 0.02 ml, initial radius ~1.0 mm, final diameter after 1 min, modified PDMS, 1% DC1107): 8 mm
- water contact angle after soaking, second week ([5]; APS-modified PDMS soaked in aqueous solution, reached over 1-2 minutes, no superspreading): about 60 °
- water contact angle after soaking, first week ([5]; APS-modified PDMS soaked in pH=4 and pH=10 solutions, reached over 2-3 minutes): 20 °
Substance: Allyl PEO Siloxane [APS]
- stability of aqueous solution [1]: decomposed in water over a few days to a week
- spreading of aqueous solutions compared with commercial superwetter L77 ([2]; degree and velocity of spreading, surface not stated): approximately the same degree and at a similar velocity to the commercial superwetter L77

- surface area of drop versus buffer control on polystyrene [2]: only marginally larger surface areas
- superwetting properties of compound or compound-modified surfaces ([4]; in aqueous solution and grafted to PDMS): do not have superwetting properties
- lowest contact angle of grafted PDMS ([4]; pure DAP grafted to PDMS at 10, 20, 50% in THF): 80 °
- surface area of drop versus buffer control on glass [6]: only marginally larger surface areas
Substance: Diallyl-Terminated PEO [DAP]

- surface area of drop versus buffer control on polystyrene [2]: only marginally larger surface areas
- surface area of drop versus buffer control on glass [6]: only marginally larger surface areas
Substance: bis-heptamethyltrisiloxanyl-PEG [SiPS]
